# Measurements: US12077503B2, “Substituted cyclic amides and their use as herbicides” (FMC CORPORATION, priority 2015, dated 2024)
# Legend:
# Type in all cases: in vivo
# [1] = system: giant foxtail (Setaria faberii); test: Test A preemergence; settings: Preemergence
# From the text: (§1) Seeds of plant species selected from barnyardgrass (Echinochloa crus-galli), Kochia (Kochia scoparia), ragweed (common ragweed, Ambrosia elatior), ryegrass, Italian (Italian ryegrass, Lolium multiflorum), crabgrass, large (Digitaria sanguinalis), giant foxtail (Setaria faberii), green foxtail (Setaria viridis), morningglory (Ipomoea spp.), pigweed (Amaranthus retroflexus), velvetleaf (Abutilon theophrasti), wheat (Triticum aestivum), and corn (Zea mays) were planted into a blend of loam soil and sand and treated preemergence with a directed soil spray using test chemicals formulated in anon-phytotoxic solvent mixture which included a surfactant.
# (§2) At the same time, plants selected from these crop and weed species and also blackgrass (Alopecurus myosuroides), and Galium (catchweed bedstraw, Galium aparine) were planted in pots containing the same blend of loam soil and sand and treated with postemergence applications of test chemicals formulated in the same manner. Plants ranged in height from 2 to 10 cm and were in the one- to two-leaf stage for the postemergence treatment. Treated plants and untreated controls were maintained in a greenhouse for approximately 10 d, after which time all treated plants were compared to untreated controls and visually evaluated for injury. Plant response ratings, summarized in Table A, are based on a 0 to 100 scale where 0 is no effect and 100 is complete control. A dash (-) response means no test result.
# [2] = system: barnyardgrass (Echinochloa crus-galli); test: Test A preemergence; settings: Preemergence
# From the text: as §1, §2
# [3] = system: pigweed (Amaranthus retroflexus); test: Test A preemergence; settings: Preemergence
# From the text: as §1, §2
# [4] = system: ragweed (common ragweed, Ambrosia elatior); test: Test A preemergence; settings: Preemergence
# From the text: as §1, §2
# [5] = system: ryegrass, Italian (Italian ryegrass, Lolium multiflorum); test: Test A preemergence; settings: Preemergence
# From the text: as §1, §2
# Kochia (Kochia scoparia) [6] = test: Test A preemergence; settings: Preemergence
# From the text: as §1, §2
# [7] = system: wheat (Triticum aestivum); test: Test A postemergence
# From the text: as §1, §2
# [8] = system: giant foxtail (Setaria faberii); test: Test A postemergence
# From the text: as §1, §2
# [9] = system: barnyardgrass (Echinochloa crus-galli); test: Test A postemergence
# From the text: as §1, §2
# [10] = system: blackgrass (Alopecurus myosuroides); test: Test A postemergence
# From the text: as §1, §2
# [11] = system: pigweed (Amaranthus retroflexus); test: Test A postemergence
# From the text: as §1, §2
# [12] = system: ragweed (common ragweed, Ambrosia elatior); test: Test A postemergence
# From the text: as §1, §2
# [13] = system: ryegrass, Italian (Italian ryegrass, Lolium multiflorum); test: Test A postemergence
# From the text: as §1, §2
# Kochia (Kochia scoparia) [14] = test: Test A postemergence
# From the text: as §1, §2
# [15] = system: Galium (catchweed bedstraw, Galium aparine); test: Test A postemergence
# From the text: as §1, §2
# corn (Zea mays) = test: Test A postemergence
# From the text: as §1, §2
# [16] = system: barnyardgrass (Echinochloa crus-galli); test: Test B flooded paddy test; settings: Flood, 250 g ai/ha; 0 to 100 scale where 0 is no effect and 100 is complete control; 13 to 15 d
# Description: (§3) Plant species in the flooded paddy test selected from rice (Oryra sativa), sedge, umbrella (small-flower umbrella sedge, Cyperus difformis), ducksalad (Heteranthera limosa), and barnyardgrass (Echinochloa crus-galli) were grown to the 2-leaf stage for testing. At time of treatment, test pots were flooded to 3 cm above the soil surface, treated by application of test compounds directly to the paddy water, and then maintained at that water depth for the duration of the test. Treated plants and controls were maintained in a greenhouse for 13 to 15 d, after which time all species were compared to controls and visually evaluated. Plant response ratings, summarized in Table B, are based on a scale of 0 to 100 where 0 is no effect and 100 is complete control. A dash (-) response means no test result.
# rice (Oryra sativa) = test: Test B flooded paddy test; settings: Flood, 250 g ai/ha; 0 to 100 scale where 0 is no effect and 100 is complete control; 13 to 15 d
# Description: as §3
# [17] = system: ducksalad (Heteranthera limosa); test: Test B flooded paddy test; settings: Flood, 250 g ai/ha; 0 to 100 scale where 0 is no effect and 100 is complete control; 13 to 15 d
# Description: as §3
# [18] = system: sedge, umbrella (small-flower umbrella sedge, Cyperus difformis); test: Test B flooded paddy test; settings: Flood, 250 g ai/ha; 0 to 100 scale where 0 is no effect and 100 is complete control; 13 to 15 d
# Description: as §3
# [19] = 125 g ai/ha, visual injury after approximately 10 d, 0 to 100 scale where 0 is no effect and 100 is complete control
# [20] = 500 g ai/ha, visual injury approx. 10 d
# [21] = 125 g ai/ha, postemergence, visual injury rating on 0 to 100 scale (0 no effect, 100 complete control), approx. 10 d
# [22] = Postemergence, 500 g ai/ha, 0 to 100 scale where 0 is no effect and 100 is complete control
smiles,measurement,setting,value
O=C1NCC(c2cc(F)cc(C(F)(F)F)c2)C1C(=O)Nc1ccccc1F (stereo not drawn) [Compound 489],"Plant response rating, Foxtail, Giant",[1]; [19],90
same,"Foxtail, Giant plant response rating (0 to 100 scale, 0 is no effect, 100 is complete control)",[1]; [20],90
same,"Plant response rating, Barnyardgrass",[2]; [19],90
same,"Barnyardgrass plant response rating (0 to 100 scale, 0 is no effect, 100 is complete control)",[2]; [20],90
same,"Plant response rating, Pigweed",[3]; [19],0
same,"Pigweed plant response rating (0 to 100 scale, 0 is no effect, 100 is complete control)",[3]; [20],40
same,"Plant response rating, Ragweed",[4]; [19],30
same,"Ragweed plant response rating (0 to 100 scale, 0 is no effect, 100 is complete control)",[4]; [20],30
same,"Plant response rating, Ryegrass, Italian",[5]; [19],30
same,"Ryegrass, Italian plant response rating (0 to 100 scale, 0 is no effect, 100 is complete control)",[5]; [20],20
same,"Plant response rating, Kochia",Kochia (Kochia scoparia) [6]; [19],20
same,"Kochia plant response rating (0 to 100 scale, 0 is no effect, 100 is complete control)",Kochia (Kochia scoparia) [6]; [20],50
same,Wheat plant response rating,[7]; [21],30
same,"Plant response rating, Wheat",[7]; [22],70
same,"Foxtail, Giant plant response rating",[8]; [21],90
same,"Plant response rating, Foxtail, Giant",[8]; [22],90
same,Barnyardgrass plant response rating,[9]; [21],90
same,"Plant response rating, Barnyardgrass",[9]; [22],90
same,Blackgrass plant response rating,[10]; [21],50
same,"Plant response rating, Blackgrass",[10]; [22],70
same,Pigweed plant response rating,[11]; [21],0
same,"Plant response rating, Pigweed",[11]; [22],20
same,Ragweed plant response rating,[12]; [21],0
same,"Plant response rating, Ragweed",[12]; [22],30
same,"Ryegrass, Italian plant response rating",[13]; [21],30
same,"Plant response rating, Ryegrass, Italian",[13]; [22],50
same,Kochia plant response rating,Kochia (Kochia scoparia) [14]; [21],0
same,"Plant response rating, Kochia",Kochia (Kochia scoparia) [14]; [22],40
same,Galium plant response rating,[15]; [21],0
same,"Plant response rating, Galium",[15]; [22],40
same,Corn plant response rating,corn (Zea mays); [21],70
same,"Plant response rating, Corn",corn (Zea mays); [22],80
same,"Plant response rating, Barnyardgrass",[16],65
same,"Plant response rating, Rice",rice (Oryra sativa),20
same,"Plant response rating, Ducksalad",[17],100
same,"Plant response rating, Sedge, Umbrella",[18],0
